Laboratory results from ChEMBL document CHEMBL1773059, “NMS-P937, a 4,5-dihydro-1H-pyrazolo[4,3-h]quinazoline derivative as potent and selective Polo-like kinase 1 inhibitor” (Bioorg Med Chem Lett, 2011).

Experiments:
[1] = biological target: Serine/threonine-protein kinase tousled-like 2 (Homo sapiens, UniProt Q86UE8); experiment: Inhibition of TLK2 assessed as [33P]gamma-ATP incorporation into substrate after 60 mins by gamma counting
[2] = system: Mus musculus; experiment: Toxicity in CD1 nu/nu mouse xenografted with human HCT116 cells assessed as mortality at 120 mg/kg, po BID administered on days 1 to 2 in weekly scheduling for 4 cycles; assay type: organism-based, HCT-116; set-up: dose 120 mg/kg, route oral; details: in vivo
[3] = biological target: Serine/threonine-protein kinase Nek6 (Homo sapiens, UniProt Q9HC98); experiment: Inhibition of NEK6 assessed as [33P]gamma-ATP incorporation into substrate after 60 mins by gamma counting
[4] = biological target: Ephrin type-A receptor 2 (Homo sapiens, UniProt P29317); experiment: Inhibition of EphA2 assessed as [33P]gamma-ATP incorporation into substrate after 60 mins by gamma counting
[5] = biological target: Inhibitor of nuclear factor kappa-B kinase subunit beta (Homo sapiens, UniProt O14920); experiment: Inhibition of IKK2 assessed as [33P]gamma-ATP incorporation into substrate after 60 mins by gamma counting
[6] = biological target: Tyrosine-protein kinase JAK3 (Homo sapiens, UniProt P52333); experiment: Inhibition of JAK3 assessed as [33P]gamma-ATP incorporation into substrate after 60 mins by gamma counting
[7] = biological target: Hepatocyte growth factor receptor (Homo sapiens, UniProt P08581); experiment: Inhibition of MET assessed as [33P]gamma-ATP incorporation into substrate after 60 mins by gamma counting
[8] = biological target: MAP kinase-interacting serine/threonine-protein kinase 2 (Homo sapiens, UniProt Q9HBH9); experiment: Inhibition of MNK2 assessed as [33P]gamma-ATP incorporation into substrate after 60 mins by gamma counting
[9] = biological target: Serine/threonine-protein kinase 26 (Homo sapiens, UniProt Q9P289); experiment: Inhibition of MST4 assessed as [33P]gamma-ATP incorporation into substrate after 60 mins by gamma counting
[10] = biological target: Eukaryotic translation initiation factor 2-alpha kinase 3 (Homo sapiens, UniProt Q9NZJ5); experiment: Inhibition of PERK assessed as [33P]gamma-ATP incorporation into substrate after 60 mins by gamma counting
[11] = biological target: Serine/threonine-protein kinase pim-1 (Homo sapiens, UniProt P11309); experiment: Inhibition of PIM1 assessed as [33P]gamma-ATP incorporation into substrate after 60 mins by gamma counting
[12] = biological target: cAMP-dependent protein kinase catalytic subunit alpha (Homo sapiens, UniProt P17612); experiment: Inhibition of PKAalpha assessed as [33P]gamma-ATP incorporation into substrate after 60 mins by gamma counting
[13] = biological target: Proto-oncogene tyrosine-protein kinase ROS (Homo sapiens, UniProt P08922); experiment: Inhibition of ROS1 assessed as [33P]gamma-ATP incorporation into substrate after 60 mins by gamma counting
[14] = Inhibition of SULU1 assessed as [33P]gamma-ATP incorporation into substrate after 60 mins by gamma counting
[15] = system: HCT-116; experiment: Antitumor activity against human HCT116 cells xenografted in CD1 nu/nu mouse assessed as tumor growth inhibition at 60 mg/kg, po administered once daily for 1 to 10 days measured on day 23; assay type: functional; details: read-out: TGI
[16] = biological target: Activated CDC42 kinase 1 (Homo sapiens, UniProt Q07912); experiment: Inhibition of ACK1 assessed as [33P]gamma-ATP incorporation into substrate after 60 mins by gamma counting
[17] = biological target: Aurora kinase B (Homo sapiens, UniProt Q96GD4); experiment: Inhibition of Aur-B assessed as [33P]gamma-ATP incorporation into substrate after 60 mins by gamma counting
[18] = biological target: Mitotic checkpoint serine/threonine-protein kinase BUB1 (Homo sapiens, UniProt O43683); experiment: Inhibition of BUB1 assessed as [33P]gamma-ATP incorporation into substrate after 60 mins by gamma counting
[19] = biological target: CDC7/DBF4 (Cell division cycle 7-related protein kinase/Activator of S phase kinase) (Homo sapiens, UniProt O00311); experiment: Inhibition of CDC7/DBF4 assessed as [33P]gamma-ATP incorporation into substrate after 60 mins by gamma counting; assay type: protein-complex assay
[20] = biological target: Cyclin-dependent kinase 1/cyclin B1 (Homo sapiens, UniProt P06493); experiment: Inhibition of CDK1/CYCB assessed as [33P]gamma-ATP incorporation into substrate after 60 mins by gamma counting; assay type: protein-complex assay
[21] = biological target: Cyclin-dependent kinase 2/cyclin A (Homo sapiens, UniProt P24941); experiment: Inhibition of CDK2/CYCA assessed as [33P]gamma-ATP incorporation into substrate after 60 mins by gamma counting; assay type: protein-complex assay
[22] = biological target: Cyclin-dependent kinase 2/cyclin E1 (Homo sapiens, UniProt P24941); experiment: Inhibition of CDK2/CYCE assessed as [33P]gamma-ATP incorporation into substrate after 60 mins by gamma counting; assay type: protein-complex assay
[23] = biological target: Eukaryotic elongation factor 2 kinase (Homo sapiens, UniProt O00418); experiment: Inhibition of EEF2K assessed as [33P]gamma-ATP incorporation into substrate after 60 mins by gamma counting
[24] = system: Caco-2; experiment: Apparent permeability of the compound across human Caco2 cells; assay type: ADME, cell-based
[25] = Apparent permeability of the compound by PAMPA assay; assay type: ADME
[26] = Intrinsic clearance in rat hepatocytes at 1 uM; assay type: ADME, cell-based, Liver, Hepatocyte
[27] = system: Mus musculus; experiment: Toxicity in CD1 nu/nu mouse xenografted with human HCT116 cells assessed as reversible body weight loss at 90 mg/kg, po once daily administered on days 1 to 2 in weekly scheduling for 4 cycles measured on day 36; details: in vivo
[28] = system: Mus musculus; experiment: Toxicity in CD1 nu/nu mouse xenografted with human HCT116 cells assessed as reversible body weight loss at 120 mg/kg, po once daily administered on days 1 to 2 in weekly scheduling for 4 cycles measured on day 29; details: in vivo
[29] = system: HCT-116; experiment: Antitumor activity against human HCT116 cells xenografted in CD1 nu/nu mouse assessed as tumor growth inhibition at 90 mg/kg, po once daily administered on days 1 to 2 daily in weekly scheduling for 4 cycles measured on day 36; details: HCT-116, po, 864 h, read-out: TGI

Chain of Ephrin type-A receptor 2 (P29317 whole entry): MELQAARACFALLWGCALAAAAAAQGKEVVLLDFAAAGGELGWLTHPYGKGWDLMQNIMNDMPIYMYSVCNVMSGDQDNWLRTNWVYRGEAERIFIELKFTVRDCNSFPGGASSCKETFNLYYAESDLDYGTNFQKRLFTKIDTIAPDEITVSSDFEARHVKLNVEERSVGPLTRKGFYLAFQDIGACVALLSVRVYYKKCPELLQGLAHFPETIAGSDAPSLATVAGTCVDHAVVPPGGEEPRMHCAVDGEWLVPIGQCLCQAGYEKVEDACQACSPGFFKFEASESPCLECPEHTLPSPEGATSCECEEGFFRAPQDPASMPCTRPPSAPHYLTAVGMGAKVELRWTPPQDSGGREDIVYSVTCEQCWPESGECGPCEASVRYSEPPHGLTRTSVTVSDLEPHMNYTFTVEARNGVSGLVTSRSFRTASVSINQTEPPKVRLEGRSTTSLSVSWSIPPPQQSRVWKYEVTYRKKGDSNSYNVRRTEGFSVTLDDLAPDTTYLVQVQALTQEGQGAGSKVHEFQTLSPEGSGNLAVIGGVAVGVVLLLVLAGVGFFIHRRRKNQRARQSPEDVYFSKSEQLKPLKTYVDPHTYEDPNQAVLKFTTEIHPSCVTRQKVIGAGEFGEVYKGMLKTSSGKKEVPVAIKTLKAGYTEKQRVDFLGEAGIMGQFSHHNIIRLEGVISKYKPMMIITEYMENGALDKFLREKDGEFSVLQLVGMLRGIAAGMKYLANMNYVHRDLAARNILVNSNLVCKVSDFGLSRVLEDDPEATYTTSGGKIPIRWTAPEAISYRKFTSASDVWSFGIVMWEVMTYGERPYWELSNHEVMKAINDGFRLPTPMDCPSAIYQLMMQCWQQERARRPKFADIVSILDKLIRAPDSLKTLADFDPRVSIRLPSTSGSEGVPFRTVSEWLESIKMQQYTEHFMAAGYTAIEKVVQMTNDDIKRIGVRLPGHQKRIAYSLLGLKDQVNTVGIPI
Chain of Serine/threonine-protein kinase pim-1 (P11309 whole entry): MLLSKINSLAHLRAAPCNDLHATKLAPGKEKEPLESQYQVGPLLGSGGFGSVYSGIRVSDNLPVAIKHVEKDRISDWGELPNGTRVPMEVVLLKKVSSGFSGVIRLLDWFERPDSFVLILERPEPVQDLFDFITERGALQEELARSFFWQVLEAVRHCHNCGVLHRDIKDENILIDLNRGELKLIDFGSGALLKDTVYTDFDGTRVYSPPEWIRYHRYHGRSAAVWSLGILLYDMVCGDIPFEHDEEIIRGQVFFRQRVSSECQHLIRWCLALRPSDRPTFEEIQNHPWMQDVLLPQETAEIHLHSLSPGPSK
Chain of Serine/threonine-protein kinase tousled-like 2 (Q86UE8 whole entry): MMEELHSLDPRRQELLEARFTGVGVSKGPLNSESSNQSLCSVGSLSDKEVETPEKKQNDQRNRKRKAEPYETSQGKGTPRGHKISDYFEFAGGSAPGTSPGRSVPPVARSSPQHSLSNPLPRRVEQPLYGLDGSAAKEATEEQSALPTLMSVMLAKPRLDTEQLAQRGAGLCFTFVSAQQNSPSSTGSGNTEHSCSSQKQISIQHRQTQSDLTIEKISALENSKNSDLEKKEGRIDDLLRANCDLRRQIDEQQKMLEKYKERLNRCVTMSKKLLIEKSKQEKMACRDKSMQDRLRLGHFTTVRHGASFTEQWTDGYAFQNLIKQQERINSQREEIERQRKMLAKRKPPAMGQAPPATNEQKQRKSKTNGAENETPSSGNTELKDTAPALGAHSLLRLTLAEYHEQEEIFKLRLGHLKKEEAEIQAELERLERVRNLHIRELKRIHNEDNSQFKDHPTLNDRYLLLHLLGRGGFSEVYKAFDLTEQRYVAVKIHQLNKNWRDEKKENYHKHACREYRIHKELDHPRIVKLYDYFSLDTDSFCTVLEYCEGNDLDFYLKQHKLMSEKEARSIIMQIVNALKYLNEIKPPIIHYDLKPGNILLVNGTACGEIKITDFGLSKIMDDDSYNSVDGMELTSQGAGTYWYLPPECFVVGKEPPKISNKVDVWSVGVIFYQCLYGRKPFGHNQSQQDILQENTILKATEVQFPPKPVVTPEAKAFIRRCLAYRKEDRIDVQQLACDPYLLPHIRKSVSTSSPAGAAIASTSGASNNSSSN
Chain of Tyrosine-protein kinase JAK3 (P52333 whole entry): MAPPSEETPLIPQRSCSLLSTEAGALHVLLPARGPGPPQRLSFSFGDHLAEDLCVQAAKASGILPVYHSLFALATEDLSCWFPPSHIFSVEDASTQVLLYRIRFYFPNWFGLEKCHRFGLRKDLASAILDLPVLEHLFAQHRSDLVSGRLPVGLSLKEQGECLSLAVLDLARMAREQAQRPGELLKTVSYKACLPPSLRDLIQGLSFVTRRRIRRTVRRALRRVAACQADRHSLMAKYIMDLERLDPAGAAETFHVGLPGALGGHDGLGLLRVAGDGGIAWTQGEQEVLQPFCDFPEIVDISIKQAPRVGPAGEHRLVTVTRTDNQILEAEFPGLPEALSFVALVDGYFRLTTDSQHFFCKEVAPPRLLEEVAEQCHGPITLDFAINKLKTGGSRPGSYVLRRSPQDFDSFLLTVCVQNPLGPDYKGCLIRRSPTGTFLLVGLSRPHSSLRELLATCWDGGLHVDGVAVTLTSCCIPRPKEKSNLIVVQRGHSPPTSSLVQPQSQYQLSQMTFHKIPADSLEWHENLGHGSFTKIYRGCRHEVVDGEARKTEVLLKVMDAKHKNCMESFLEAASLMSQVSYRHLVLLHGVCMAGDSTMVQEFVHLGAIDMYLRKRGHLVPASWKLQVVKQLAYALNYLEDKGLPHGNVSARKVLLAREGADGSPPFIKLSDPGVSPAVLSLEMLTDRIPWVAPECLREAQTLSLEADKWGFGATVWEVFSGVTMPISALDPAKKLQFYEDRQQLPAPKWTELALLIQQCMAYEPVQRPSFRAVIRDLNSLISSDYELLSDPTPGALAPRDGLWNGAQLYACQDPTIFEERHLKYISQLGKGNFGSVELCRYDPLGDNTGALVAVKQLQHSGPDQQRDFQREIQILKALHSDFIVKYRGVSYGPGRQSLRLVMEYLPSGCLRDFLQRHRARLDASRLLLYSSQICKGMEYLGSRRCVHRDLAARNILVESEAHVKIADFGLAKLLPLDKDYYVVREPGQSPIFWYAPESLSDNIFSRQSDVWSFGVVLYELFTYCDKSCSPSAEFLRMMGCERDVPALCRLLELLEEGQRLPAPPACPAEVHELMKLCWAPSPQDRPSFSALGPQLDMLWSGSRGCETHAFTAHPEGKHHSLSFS
Chain of Mitotic checkpoint serine/threonine-protein kinase BUB1 (O43683 whole entry): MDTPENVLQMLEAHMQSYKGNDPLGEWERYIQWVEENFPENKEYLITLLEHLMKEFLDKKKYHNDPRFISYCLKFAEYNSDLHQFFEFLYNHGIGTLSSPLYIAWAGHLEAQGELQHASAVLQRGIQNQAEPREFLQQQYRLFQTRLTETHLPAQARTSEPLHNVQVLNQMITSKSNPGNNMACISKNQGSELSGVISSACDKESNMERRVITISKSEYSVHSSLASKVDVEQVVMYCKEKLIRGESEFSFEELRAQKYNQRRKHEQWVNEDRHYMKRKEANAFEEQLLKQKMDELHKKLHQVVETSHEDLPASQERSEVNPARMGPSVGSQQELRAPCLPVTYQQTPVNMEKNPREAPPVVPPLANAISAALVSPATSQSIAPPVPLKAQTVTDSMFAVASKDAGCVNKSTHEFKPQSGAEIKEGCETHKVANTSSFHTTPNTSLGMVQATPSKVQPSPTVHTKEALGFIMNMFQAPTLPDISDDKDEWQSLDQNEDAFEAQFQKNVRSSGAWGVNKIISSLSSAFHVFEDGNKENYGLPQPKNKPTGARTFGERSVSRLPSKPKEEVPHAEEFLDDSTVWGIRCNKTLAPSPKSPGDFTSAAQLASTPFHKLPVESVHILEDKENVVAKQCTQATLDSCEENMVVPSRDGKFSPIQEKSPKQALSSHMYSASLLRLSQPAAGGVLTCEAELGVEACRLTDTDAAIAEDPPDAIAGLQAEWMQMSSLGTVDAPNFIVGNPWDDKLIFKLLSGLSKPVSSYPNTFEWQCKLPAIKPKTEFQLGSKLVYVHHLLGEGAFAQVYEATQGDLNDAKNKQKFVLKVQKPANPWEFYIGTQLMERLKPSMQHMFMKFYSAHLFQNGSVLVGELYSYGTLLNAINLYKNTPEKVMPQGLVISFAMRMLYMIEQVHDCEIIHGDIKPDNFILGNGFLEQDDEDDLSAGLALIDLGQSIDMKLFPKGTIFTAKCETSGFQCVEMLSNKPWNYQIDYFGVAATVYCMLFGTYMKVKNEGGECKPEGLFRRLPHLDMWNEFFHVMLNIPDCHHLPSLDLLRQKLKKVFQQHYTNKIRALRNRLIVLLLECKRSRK
Chain of Aurora kinase B (Q96GD4 whole entry): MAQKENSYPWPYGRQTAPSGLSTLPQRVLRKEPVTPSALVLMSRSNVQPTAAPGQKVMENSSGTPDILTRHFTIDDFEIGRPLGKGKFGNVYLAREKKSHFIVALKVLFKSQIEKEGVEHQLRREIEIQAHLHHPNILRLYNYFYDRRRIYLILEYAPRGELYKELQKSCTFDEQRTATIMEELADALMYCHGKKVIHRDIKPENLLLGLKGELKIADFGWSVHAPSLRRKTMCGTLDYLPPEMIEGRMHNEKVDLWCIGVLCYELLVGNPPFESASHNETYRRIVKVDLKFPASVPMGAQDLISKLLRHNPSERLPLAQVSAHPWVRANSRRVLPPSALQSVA
Chain of Serine/threonine-protein kinase 26 (Q9P289 whole entry): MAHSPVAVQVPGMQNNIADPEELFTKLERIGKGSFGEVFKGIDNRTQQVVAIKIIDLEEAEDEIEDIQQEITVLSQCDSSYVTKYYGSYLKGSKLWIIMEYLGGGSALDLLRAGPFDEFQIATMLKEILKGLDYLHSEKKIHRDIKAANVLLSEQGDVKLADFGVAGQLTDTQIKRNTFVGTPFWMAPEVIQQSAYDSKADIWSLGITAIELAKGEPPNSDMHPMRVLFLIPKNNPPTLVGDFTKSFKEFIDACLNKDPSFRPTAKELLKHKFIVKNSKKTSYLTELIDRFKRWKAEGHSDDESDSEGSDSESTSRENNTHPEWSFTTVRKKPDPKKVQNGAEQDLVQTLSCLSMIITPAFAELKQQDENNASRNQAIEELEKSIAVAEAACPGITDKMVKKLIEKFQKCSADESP

In the case of `CN1CCN(c2ccc(OC(F)(F)F)c(Nc3ncc4c(n3)-c3c(c(C(N)=O)nn3CCO)CC4)c2)CC1` [ONVANSERTIB], the IC50 [1] is reported as greater than 10 µM, the Activity [2] is reported as “Non-toxic” and the IC50 [3] is reported as greater than 10 µM. For the same molecule, the IC50 [4] was greater than 10 µM, the IC50 [5] was greater than 10 µM and the IC50 [6] was greater than 10 µM. For the same molecule, the IC50 [7] was greater than 10 µM, the IC50 [8] was greater than 10 µM and the IC50 [9] was greater than 10 µM. The IC50 [10] was greater than 10 µM, the IC50 [11] was greater than 10 µM and the IC50 [12] was greater than 10 µM. The IC50 [13] was greater than 10 µM, the IC50 [14] was greater than 10 µM and the inhibition in vivo at 60 mg/kg [15] was 89%. It also gave an IC50 [16] greater than 10 µM, an IC50 [17] greater than 10 µM and an IC50 [18] greater than 10 µM. It also gave an IC50 [19] greater than 10 µM, an IC50 [20] greater than 10 µM and an IC50 [21] greater than 10 µM. The IC50 [22] was greater than 10 µM, the IC50 [23] was greater than 10 µM and the Papp [24] was “permeable”. It also gave a Papp [25] of 49.6 ×10⁻⁶ cm/s, a CLint scaled at 1 µM [26] of 165 mL/min/kg and an Activity [27] of 10%. It also gave an Activity [28] of 18% and an inhibition in vivo at 90 mg/kg [29] of 71%.
